The target in one assay is T1, Human Calpain 1/NS1 (Homo sapiens, UniProt P07384).
T1 sequence (P07384 1-714): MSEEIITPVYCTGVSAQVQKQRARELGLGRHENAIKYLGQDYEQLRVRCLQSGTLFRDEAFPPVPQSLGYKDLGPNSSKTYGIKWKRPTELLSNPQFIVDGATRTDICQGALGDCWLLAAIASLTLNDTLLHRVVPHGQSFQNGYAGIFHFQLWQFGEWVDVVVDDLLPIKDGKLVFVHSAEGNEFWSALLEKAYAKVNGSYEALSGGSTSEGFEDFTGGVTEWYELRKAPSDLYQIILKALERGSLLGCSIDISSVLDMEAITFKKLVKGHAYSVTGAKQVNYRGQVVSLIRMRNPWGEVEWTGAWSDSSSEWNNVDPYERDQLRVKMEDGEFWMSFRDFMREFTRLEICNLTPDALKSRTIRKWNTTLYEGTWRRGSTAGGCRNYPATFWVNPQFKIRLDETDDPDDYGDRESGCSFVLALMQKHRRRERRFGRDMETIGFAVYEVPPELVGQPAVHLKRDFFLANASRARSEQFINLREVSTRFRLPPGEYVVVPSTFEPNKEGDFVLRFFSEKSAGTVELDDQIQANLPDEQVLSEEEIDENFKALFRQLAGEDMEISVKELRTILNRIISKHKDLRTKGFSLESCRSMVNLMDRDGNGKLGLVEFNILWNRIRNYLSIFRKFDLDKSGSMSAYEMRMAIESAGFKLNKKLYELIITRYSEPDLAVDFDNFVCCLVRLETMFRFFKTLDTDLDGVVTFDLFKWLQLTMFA
T1 sequence (P04632 1-268 partner): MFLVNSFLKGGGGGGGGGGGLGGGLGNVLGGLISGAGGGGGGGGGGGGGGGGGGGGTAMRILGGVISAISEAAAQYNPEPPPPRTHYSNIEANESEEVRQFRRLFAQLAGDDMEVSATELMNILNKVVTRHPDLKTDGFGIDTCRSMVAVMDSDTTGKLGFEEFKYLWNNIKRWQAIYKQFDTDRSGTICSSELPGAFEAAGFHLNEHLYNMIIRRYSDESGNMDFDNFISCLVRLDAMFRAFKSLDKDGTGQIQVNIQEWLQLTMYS
In words: Calpain inhibition continuous fluorescence (FRET) assay, Human Calpain 1/NS1. Format: biochemical. The conditions noted are these: read-out: Human Calpain 1/NS1 IC50. The essentials:
(§1)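 Fluorescence increase from the cleaved 5-FAM/QXL 520 substrate, read at 490/520 nm, gave activity. Calcium was supplied with the substrate to activate the enzyme in situ after a 25C enzyme-inhibitor preincubation, and IC50s were fit from initial slopes.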

The target in another assay is T2, Human Calpain 9/NS1 (Homo sapiens, UniProt O14815).
T2 sequence (O14815 1-690): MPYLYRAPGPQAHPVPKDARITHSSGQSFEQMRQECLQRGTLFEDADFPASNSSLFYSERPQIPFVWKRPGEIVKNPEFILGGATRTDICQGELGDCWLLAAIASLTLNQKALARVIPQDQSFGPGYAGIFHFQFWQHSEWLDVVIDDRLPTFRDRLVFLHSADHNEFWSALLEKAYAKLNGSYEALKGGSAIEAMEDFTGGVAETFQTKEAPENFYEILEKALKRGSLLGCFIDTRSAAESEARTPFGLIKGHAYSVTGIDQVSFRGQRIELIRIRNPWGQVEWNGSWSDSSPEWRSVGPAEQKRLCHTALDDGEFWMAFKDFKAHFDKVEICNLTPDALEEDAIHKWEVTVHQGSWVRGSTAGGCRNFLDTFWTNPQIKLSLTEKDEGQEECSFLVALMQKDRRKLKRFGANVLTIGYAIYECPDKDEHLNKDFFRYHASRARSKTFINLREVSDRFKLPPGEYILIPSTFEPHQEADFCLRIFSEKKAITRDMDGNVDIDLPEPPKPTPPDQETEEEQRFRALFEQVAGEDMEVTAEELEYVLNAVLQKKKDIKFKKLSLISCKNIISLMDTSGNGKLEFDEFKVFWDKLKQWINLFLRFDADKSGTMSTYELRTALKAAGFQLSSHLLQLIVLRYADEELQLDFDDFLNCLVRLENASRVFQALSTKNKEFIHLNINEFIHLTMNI
T2 sequence (P04632 1-268 partner): T1 sequence (P04632 1-268 partner)
The assay can be described thus: Calpain inhibition continuous fluorescence (FRET) assay, Human Calpain 9/NS1. The conditions noted are these: read-out: Human Calpain 9/NS1 IC50. Format: biochemical. The essentials: as §1

For assay [1], the system named is Calpain activity in SH-SY5Y cells. In words: SH-SY5Y + AMC fluorescence assay (Suc-LLVY-AMC substrate). The format is cell-based. Particulars: read-out: SH-SY5Y + AMC IC50.
Assay [2] concerns Calpain activity in SH-SY5Y cells (SBDP-150). The assay can be described thus: SH-SY5Y Spectrin western blot assay (SBDP-150 breakdown product, A23187-induced). Format: cell-based. Particulars: SH-SY5Y cells, read-out: SH-SY5Y Spectrin IC50.
For a further assay, the target named is T3, Human Calpain 2/NS1 (Homo sapiens, UniProt P17655).
T3 sequence (P17655 1-700): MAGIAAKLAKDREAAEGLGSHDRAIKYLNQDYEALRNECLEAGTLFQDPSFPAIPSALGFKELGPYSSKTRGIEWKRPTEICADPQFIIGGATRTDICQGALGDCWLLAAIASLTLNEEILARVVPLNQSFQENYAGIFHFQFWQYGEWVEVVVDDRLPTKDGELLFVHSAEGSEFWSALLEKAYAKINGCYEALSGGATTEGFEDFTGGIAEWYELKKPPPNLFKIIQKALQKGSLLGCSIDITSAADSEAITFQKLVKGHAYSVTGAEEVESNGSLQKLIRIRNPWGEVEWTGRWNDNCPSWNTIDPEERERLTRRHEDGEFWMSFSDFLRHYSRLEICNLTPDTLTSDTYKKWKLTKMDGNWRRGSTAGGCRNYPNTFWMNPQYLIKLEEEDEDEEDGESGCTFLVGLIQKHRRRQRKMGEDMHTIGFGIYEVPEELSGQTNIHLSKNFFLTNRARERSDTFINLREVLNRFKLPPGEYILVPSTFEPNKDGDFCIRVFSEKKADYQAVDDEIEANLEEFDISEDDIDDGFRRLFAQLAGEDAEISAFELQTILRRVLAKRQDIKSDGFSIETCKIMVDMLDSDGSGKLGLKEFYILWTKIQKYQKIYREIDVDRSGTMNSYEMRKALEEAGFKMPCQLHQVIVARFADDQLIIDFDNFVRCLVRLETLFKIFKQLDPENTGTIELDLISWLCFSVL
T3 sequence (P04632 1-268 partner): T1 sequence (P04632 1-268 partner)
The assay can be described thus: Calpain inhibition continuous fluorescence (FRET) assay, Human Calpain 2/NS1. The format is biochemical. Particulars: read-out: Human Calpain 2/NS1 IC50. In outline: as §1

The mark [3] stands for this setting: Homo sapiens, A23187-induced SBDP-150, western blot.
Where [4] appears, read: Homo sapiens, Column D, A23187-induced SBDP-150.

Where two headings read alike, the source gives them in different places.

With `Cn1cc(C(=O)NC(Cc2ccccc2)C(=O)C(N)=O)c(-c2cccc3c2OC(F)(F)O3)n1` (stereo not drawn) [Compound 510, N-(4-amino-3,4-dioxo-1-phenylbutan-2-yl)-3-(2,2-difluorobenzo[d][1,3]dioxol-4-yl)-1-methyl-1H-pyrazole-4-carboxamide], the IC50 is < 3 µM on Human Calpain 1/NS1; < 3 µM on Human Calpain 9/NS1; 10 to 25 µM in assay [1]; 10 to 25 µM in assay [2] (setting [3]); < 3 µM on Human Calpain 2/NS1.

On to `NC(=O)C(=O)C(Cc1ccccc1)NC(=O)c1cn(C(F)F)nc1-c1cnccn1` (stereo not drawn) [Compound 581, N-(4-amino-3,4-dioxo-1-phenylbutan-2-yl)-1-(difluoromethyl)-3-(pyrazin-2-yl)-1H-pyrazole-4-carboxamide], for which the IC50 was < 3 µM at Human Calpain 1/NS1; < 3 µM on Human Calpain 9/NS1; 10 to 25 µM in assay [1]; > 25 µM in assay [2] (setting [3]); < 3 µM at Human Calpain 2/NS1.

With `Cn1cc(C(=O)NC(Cc2ccccc2)C(=O)C(N)=O)c(-c2ccccc2Cl)n1` (stereo not drawn) [Compound 604, N-(4-amino-3,4-dioxo-1-phenylbutan-2-yl)-3-(2-chlorophenyl)-1-methyl-1H-pyrazole-4-carboxamide], the IC50 at Human Calpain 1/NS1 was < 3 µM; on Human Calpain 9/NS1 it was < 3 µM; in assay [1] it was < 10 µM; in assay [2] (setting [3]) it was > 25 µM; at Human Calpain 2/NS1, < 3 µM.

Consider `Cn1cc(C(=O)NC(Cc2cc(F)cc(F)c2)C(=O)C(N)=O)c(-c2ccccc2F)n1` (stereo not drawn) [Compound 580, N-(4-amino-1-(3,5-difluorophenyl)-3,4-dioxobutan-2-yl)-3-(2-fluorophenyl)-1-methyl-1H-pyrazole-4-carboxamide], for which the IC50 was < 3 µM on Human Calpain 1/NS1; < 3 µM on Human Calpain 9/NS1; < 10 µM in assay [1]; 10 to 25 µM in assay [2] (setting [3]); < 3 µM on Human Calpain 2/NS1.

`NC(=O)C(=O)C(Cc1ccccc1)NC(=O)c1nsnc1-c1cccc(F)c1F` (stereo not drawn) [Compound 372, N-(4-amino-3,4-dioxo-1-phenylbutan-2-yl)-4-(2,3-difluorophenyl)-1,2,5-thiadiazole-3-carboxamide]: the IC50 at Human Calpain 1/NS1 is < 3 µM; at Human Calpain 9/NS1, < 3 µM; in assay [1], < 10 µM; in assay [2] (setting [3]), < 10 µM; at Human Calpain 2/NS1, < 3 µM.

For the compound `Cc1cc(C(=O)N[C@@H](Cc2ccccc2)C(=O)C(N)=O)n(-c2ccc(-c3ccccc3)cc2)n1` [Compound 83, (S)-1-([1,1′-biphenyl]-4-yl)-N-(4-amino-3,4-dioxo-1-phenylbutan-2-yl)-3-methyl-1H-pyrazole-5-carboxamide], the IC50 on Human Calpain 1/NS1 (Column A) was < 3 µM; at Human Calpain 9/NS1 (Column C), < 3 µM; in assay [1] (Column E), > 25 µM; in assay [2] (setting [4]), < 10 µM; at Human Calpain 2/NS1 (Column B), < 3 µM.

Regarding `NC(=O)C(=O)C(Cc1ccccc1)NC(=O)c1nsnc1Br` (stereo not drawn) [Compound 366, N-(4-amino-3,4-dioxo-1-phenylbutan-2-yl)-4-bromo-1,2,5-thiadiazole-3-carboxamide], the IC50 on Human Calpain 1/NS1 was < 3 µM; on Human Calpain 9/NS1, < 3 µM; in assay [1], < 10 µM; in assay [2] (setting [3]) it was 10 to 25 µM; at Human Calpain 2/NS1 it was < 3 µM.

Take `NC(=O)C(=O)C(Cc1ccccc1)NC(=O)c1cn(-c2ccccc2F)nc1-c1ccccc1` (stereo not drawn) [Compound 527, N-(4-amino-3,4-dioxo-1-phenylbutan-2-yl)-1-(2-fluorophenyl)-3-phenyl-1H-pyrazole-4-carb oxamide]: the IC50 on Human Calpain 1/NS1 is < 3 µM; at Human Calpain 9/NS1 it was < 3 µM; in assay [1], < 10 µM; in assay [2] (setting [3]) it was > 25 µM; at Human Calpain 2/NS1, < 3 µM.

For `Cc1cc(C(=O)N[C@@H](Cc2ccccc2)C(=O)C(N)=O)n(-c2cccc(-c3ccccc3C)c2)n1` [Compound 81, (S)—N-(4-amino-3,4-dioxo-1-phenylbutan-2-yl)-3-methyl-1-(2′-methyl-[1,1′-biphenyl]-3-yl)-1H-pyrazole-5-carboxamide], the IC50 on Human Calpain 1/NS1 (Column A) is < 3 µM; at Human Calpain 9/NS1 (Column C), < 3 µM; in assay [1] (Column E), 10 to 25 µM; in assay [2] (setting [4]) it was < 10 µM; on Human Calpain 2/NS1 (Column B), < 3 µM.

Regarding `COc1ccc(C[C@H](NC(=O)c2cn(C)nc2-c2ccccc2)C(=O)C(N)=O)cc1` [Compound 420, (S)—N-(4-amino-1-(4-methoxyphenyl)-3,4-dioxobutan-2-yl)-1-methyl-3-phenyl-1H-pyrazole-4-carboxamide], the IC50 was < 3 µM at Human Calpain 1/NS1; < 3 µM on Human Calpain 9/NS1; > 25 µM in assay [1]; < 10 µM in assay [2] (setting [3]); < 3 µM at Human Calpain 2/NS1.

In the case of “N-(4-amino-3-hydroxy-4-oxo-1-phenylbutan-2-yl)-4-(4-((benzyloxy)methyl)phenyl)-1,2,5-thiadiazole-3-carboxamide [Compound 369]”, the IC50 at Human Calpain 1/NS1 was < 3 µM; on Human Calpain 9/NS1, < 3 µM; in assay [1], > 25 µM; in assay [2] (A23187-induced SBDP-150, western blot), < 10 µM; at Human Calpain 2/NS1, < 3 µM.

With `Cc1cccc(-c2c(C(=O)N[C@@H](Cc3ccccc3)C(=O)C(N)=O)cnn2C)c1` [Compound 172, (S)—N-(4-amino-3,4-dioxo-1-phenylbutan-2-yl)-1-methyl-5-(m-tolyl)-1H-pyrazole-4-carboxamide], the IC50 at Human Calpain 1/NS1 (Column A) was < 3 µM; on Human Calpain 9/NS1 (Column C) it was < 3 µM; in assay [1] (Column E), > 25 µM; in assay [2] (setting [4]) it was < 10 µM; on Human Calpain 2/NS1 (Column B), < 3 µM.

For the origin of these results see patent publication US11339130B1 (Blade Therapeutics, Inc., priority 2016, dated 2022).
